Reference: patent publication US11077120B2, “Prostaglandin receptor EP2 antagonists, derivatives, compositions, and uses related thereto” (Emory University, priority 2014, dated 2021)

Molecular target: T1, human EP2 receptors (Homo sapiens, UniProt P43116)
T1 construct: expressed in transfected cells
Experiment: cell-based cAMP TR-FRET assay, rightward shift of PGE2 concentration response curve (Schild KB), EP2
Details: Table 1; Schild KB from single antagonist concentration 1 μM; average of 2-3 measurements in duplicate; read-out: EP2 KB
Procedure: KB value indicates the antagonist concentration required for a twofold rightward shift in the PGE2 dose-response curve. Thus, a lower KB value indicates a higher inhibitory potency.
The synthesis was carried out starting from commercially available 2-methyl indole or 2-trifluoromethyl indoles (11a-c), which on treatment with bromoacetonitrile provided intermediates (12a-c), which then were subjected to lithium aluminum hydride to reduce cyanide to amines. […] Synthesized derivatives were tested by using a cAMP-derived TR-FRET assay, at single concentration (1 μM) to observe a rightward shift of PGE2 (an EP2 agonist) concentration response curve in a C6G cell line that overexpresses human EP2 receptors.
A lower KB value indicates a higher inhibitory potency.
Intracellular cAMP was measured with a cell-based homogeneous time-resolved fluorescence resonance energy transfer (TR-FRET) method (Cisbio Bioassays). […] Endogenous cAMP produced by cells competes with labeled cAMP for binding to the cAMP antibody and thus reduces the FRET signal. Cells stably expressing human DP1, EP2, EP4, or IP receptors were seeded into 384-well plates in 30 μl complete medium (4,000 cells/well) and grown overnight. The medium was carefully withdrawn and 10 μl Hanks' Buffered Salt Solution (HBSS) (Hyclone) containing 20 μM rolipram was added into the wells to block phosphodiesterases. The cells were incubated at room temperature for 0.5-1 h and then treated with vehicle or test compound for 10 min before addition of increasing concentrations of appropriate agonist: BW245C for DP1, PGE2 for EP2 and EP4, or iloprost for IP. The cells were incubated at room temperature for 40 min, then lysed in 10 μl lysis buffer containing the FRET acceptor cAMP-d2 and 1 min later another 10 μl lysis buffer with anti-cAMP-Cryptate was added. After 60-90 min incubation at room temperature, the FRET signal was measured by an Envision 2103 Multilabel Plate Reader (PerkinElmer Life Sciences) with a laser excitation at 337 nm and dual emissions at 665 nm and 590 nm for d2 and Cryptate (50 s delay), respectively. The FRET signal was expressed as: F665/F590×10^4.

T1 sequence (P43116 whole entry): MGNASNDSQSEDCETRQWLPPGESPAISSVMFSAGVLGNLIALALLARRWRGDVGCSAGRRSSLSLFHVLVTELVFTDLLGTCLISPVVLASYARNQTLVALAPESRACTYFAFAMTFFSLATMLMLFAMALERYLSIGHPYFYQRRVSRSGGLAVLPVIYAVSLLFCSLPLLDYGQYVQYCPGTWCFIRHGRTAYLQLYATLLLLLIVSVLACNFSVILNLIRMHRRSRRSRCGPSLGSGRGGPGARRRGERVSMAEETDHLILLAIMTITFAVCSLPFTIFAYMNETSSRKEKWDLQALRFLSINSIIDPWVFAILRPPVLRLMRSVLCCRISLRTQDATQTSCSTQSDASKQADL

Compound	Kb [nM]
Cc1cc2ccccc2n1CCNC(=O)c1ccc(C(=O)N(C)C)cc1 [Compound 6q]	> 1000
Cc1cc2ccccc2n1CCNC(=O)c1ccc(O)cc1 [Compound 6j]	> 1000
Cc1cc2ccccc2n1CCNC(=O)c1ccc(C2CCCN(C(=O)OC(C)(C)C)C2)cc1 (stereo not drawn) [Compound 8g]	95
CCN(CC)c1ccc(C(=O)NCCn2c(C)cc3ccccc32)cc1OC [Compound 7g]	61.2
Cc1cc2ccccc2n1CCNC(=O)c1ccc(-n2cnnn2)cc1 [Compound 7x]	42.2
CC(=O)Nc1ccc(C(=O)NCCn2c(C)cc3ccccc32)cc1F [Compound 7b]	530
CC(=O)Nc1ccc(C(=O)NCCn2c(C)cc3ccccc32)cc1 [Compound 6n]	97
O=C(NCCn1c(C(F)(F)F)cc2ccccc21)c1ccc(N2CCOCC2)cc1 [Compound 8u]	120
Cc1cc2ccccc2n1CCNC(=O)c1ccc(N(C)C)c(F)c1 [Compound 7a]	18.1
CCNc1ccc(C(=O)NCCn2c(C)cc3ccccc32)cc1 [Compound 6d]	15.5
Cc1cc2ccccc2n1CCNC(=O)c1ccc(C(=O)OC(C)(C)C)cc1 [Compound 6t]	100
CC(=O)N1CCN(c2ccc(C(=O)NCCn3c(C)cc4ccccc43)cc2)CC1 [Compound 8d]	50.2
Cc1[nH]c2ccccc2c1CCNC(=O)c1ccc(N2CCOCC2)c(F)c1 [Compound 9d]	66
CCN(CC)c1ccc(C(=O)NCCn2c(C)cc3ccccc32)cc1C(F)(F)F [Compound 7e]	310
CCN(CC)c1ccc(C(=O)NCCn2c(C)nc3ccccc32)cc1 [Compound 8v]	190
COc1ccc(C(=O)NCCn2c(C)cc3ccccc32)cc1 [Compound 6c]	75.6
Cc1cc2cc(F)ccc2n1CCNC(=O)c1ccc(N2CCOCC2)cc1 [Compound 8r]	14.9
Cc1[nH]c2ccccc2c1CCNC(=O)c1ccc(N2CCN(C)CC2)cc1 [Compound 9e]	135
CCN(CC)c1ccc(C(=O)NCCn2c(C(F)(F)F)cc3ccccc32)cc1 [Compound 8t]	150
Cc1cc2ccccc2n1CCNC(=O)c1ccc(N2CCCN(C)CC2)cc1 [Compound 7v]	148

Compound	Kb [nM]
COc1ccc(C(=O)NCCn2c(C)cc3ccccc32)cc1F [Compound 7c]	86.8
Cc1cc2ccccc2n1CCNC(=O)c1ccc(C2CCCNC2)cc1 (stereo not drawn) [Compound 8h]	> 1000
Cc1cc2cc(F)ccc2n1CCNC(=O)c1ccc(N2CCN(C)CC2)c(F)c1 [Compound 8s]	62.2
Cc1cc2ccccc2n1CCNC(=O)c1cccc(N2CCN(C)CC2)c1 [Compound 7r]	770
Cc1[nH]c2ccccc2c1CCNC(=O)c1ccc(N2CCCCC2)cc1 [Compound 9b]	19.8
Cc1cc2ccccc2n1CCNC(=O)c1ccc2[nH]nnc2c1 [Compound 8e]	87.5
CCNc1ncc(C(=O)NCCc2c(C)[nH]c3ccccc23)cn1 [Compound 9f]	155
Cc1[nH]c2ccccc2c1CCNC(=O)c1cnc(N2CCOCC2)nc1 [Compound 9g]	280
CCNc1ccc(C(=O)NCCn2c(C)cc3ccccc32)cc1C(F)(F)F [Compound 7f]	20.2
Cc1cc2ccccc2n1CCNC(=O)c1ccc(C2CCCCC2)cc1 [Compound 8b]	120
CCN(CC)c1ccc(C(=O)NCCn2c(C)cc3ccccc32)cc1F [Compound 7d]	4.6
Cc1cc2ccccc2n1CCNC(=O)c1ccc(CN)cc1 [Compound 6y]	690
Cc1cc2ccccc2n1CCNC(=O)c1ccc(CN2CCN(C)CC2)cc1 [Compound 8k]	> 1000
CCOC(=O)C1CCN(c2ccc(C(=O)NCCn3c(C)cc4ccccc43)cc2)CC1 [Compound 7m]	500
Cc1cc2ccccc2n1CCNC(=O)c1ccc(-n2nn[nH]c2=S)cc1 [Compound 7y]	32.2
Cc1cc2ccccc2n1CCNC(=O)c1ccc(NC(=N)N)cc1 [Compound 6k]	> 1000
Cc1cc2ccccc2n1CCNC(=O)c1ccc(N2CCNCC2)cc1 [Compound 8c]	410
Cc1cc2ccccc2n1CCNC(=O)c1ccc(S(N)(=O)=O)cc1 [Compound 6v]	486
Cc1cc2ccccc2n1CCNC(=O)c1cccc(N2CCOCC2)c1 [Compound 7s]	> 1000
CCN(CC)C(=O)c1ccc(C(=O)NCCc2c(C)[nH]c3ccccc23)cc1 [Compound 8y]	> 1000

Compound	Kb [nM]
Cc1cc2ccccc2n1CCNC(=O)c1cnc(N)nc1 [Compound 8l]	> 1000
Cc1cc2ccccc2n1CCNC(=O)c1ccc(CN2CCOCC2)cc1 [Compound 8j]	970
Cc1cc2ccccc2n1CCNC(=O)c1ccc(C#N)c(F)c1 [Compound 7h]	140
Cc1cc2ccccc2n1CCNC(=O)c1ccc2[nH]c(=S)[nH]c(=O)c2c1 [Compound 8f]	84.1
CCCCN(CCCC)c1ccc(C(=O)NCCn2c(C)cc3ccccc32)cc1 [Compound 6h]	68.8
Cc1cc2ccccc2n1CCNC(=O)c1ccc(N2CCN(C)CC2)cc1 [Compound 7q]	64
CCN(CC)c1ccc(C(=O)NCCn2cnc3ccccc32)cc1 [Compound 8w]	> 1000
Cc1cc2ccccc2n1CCNC(=O)c1ccc(N2CCC(C)CC2)cc1 [Compound 7l]	30.3
Cc1cc2ccccc2n1CCNC(=O)c1ccc(OC2CCNCC2)cc1 [Compound 8i]	> 1000
Cc1cc2ccccc2n1CCNC(=O)c1cccnc1N [Compound 8p]	520
CCN(CC)C(=O)c1ccc(C(=O)NCCn2c(C)cc3ccccc32)cc1 [Compound 6r]	800
Cc1cc2ccccc2n1CCNC(=O)c1ccc(CNC(=O)OC(C)(C)C)cc1 [Compound 6x]	84
Cc1cc2ccccc2n1CCNC(=O)c1ccc(CCN)cc1 [Compound 6z]	1220
Cc1cc2ccccc2n1CCNC(=O)C1CCC(c2ncccn2)CC1 (stereo not drawn) [Compound 8q]	380
CC(=O)Oc1ccc(C(=O)NCCn2c(C)cc3ccccc32)cc1 [Compound 6m]	150
Cc1cc2ccccc2n1CCNC(=O)c1ccc(C#N)cc1F [Compound 7i]	280
Cc1cc2ccccc2n1CCNC(=O)c1nc2cc(F)ccc2[nH]1 [Compound 9h]	130
Cc1cc2ccccc2n1CCNC(=O)c1ccc(NC(=O)c2ccccc2F)cc1 [Compound 6o]	51

Same assay, conditions: Table 3; Schild KB from single concentration 1 μM; read-out: EP2 KB

Compound	Kb [nM]
COc1cc(/C=C/C(=O)N2CCC(c3c(C)[nH]c4ccccc34)C2)cc(OC)c1OC (stereo not drawn) [Compound 16o]	> 1000
COc1cc(/C=C/C(=O)N2CCCC(c3c(C)[nH]c4ccccc34)C2)cc(OC)c1OC (stereo not drawn) [Compound 16n]	> 1000

Same assay, conditions: Table 6

Compound	EP2 KB
Cc1cc2ccccc2n1CCNC(=O)c1ccc(OCCN(C)C)c(OCCN(C)C)c1 [TG8-76-2]	Inactive
Cc1nc2ccccc2c(C(=O)NCCn2c(C)cc3ccccc32)c1O [TG7-276]	Inactive

Same assay, conditions: Table 6; read-out: EP2 KB

Compound	Kb [nM]
O=C(NCCn1c(C(F)(F)F)cc2ccccc21)c1cc(-c2ccc(F)cc2)n[nH]1 [TG7-266]	8800
COc1cc(C(=O)NCCn2c(C)cc3ccccc32)ccc1OCCN(C)C [TG8-75]	1000
Cc1cc2ccccc2n1CCNC(=O)c1cc(CC(C)C)no1 [TG7-277]	172
Cc1cc2ccccc2n1CCNC(=O)c1ccc(N2CCC(C(=O)N(C)C)CC2)cc1 [TG8-64]	190
Cc1ccc2c(O)c(C(=O)NCCn3c(C)cc4ccccc43)cnc2n1 [TG7-275]	1810
Cc1cc(C(=O)NCCn2c(C)cc3ccccc32)n(Cc2ccccc2)n1 [TG7-274]	1330

Same assay, conditions: read-out: EP2 KB

Compound	Kb [nM]
Cc1cc2ccccc2n1CCNC(=O)c1cccc(S(N)(=O)=O)c1 [Compound 6w]	> 1000
